Article PMC8400955 (Pharmaceuticals, 2021)
Values joined by “and” are separate entries in the source; they are usually repeats but may differ in a detail not shown here. Identical values can stand only once. “Also recorded” adds a separate entry of the source. Like-named read-outs stand apart in the source and are kept apart here.

Columns and labels:
[1] = target: T1, CYP2C19 (Homo sapiens, UniProt P33261); assay: CYP inhibition in human liver microsomes, CYP2C19; type: in vitro ADME; details: HLM, marker substrate Mephenytoin
Method: (§1) . The inhibition of CYP2B6 and 3A4 (when midazolam was used as the substrate) by ZB716 was not observed. The inhibitory potential of ZB716 on human CYP enzyme activities appears relatively low.
(§2) The final concentrations of ZB716 in the incubation system were 0, 0.05, 0.15, 0.5, 1.5, 5, and 15 µM (final organic solvent concentration ≤ 1%). […] . […] The concentrations of the isoform-specific metabolites derived from marker substrates were measured by UPLC–MS/MS. The IC50 values were calculated from the percentages of the rate of the metabolite formation relative to non-inhibited controls vs. the concentrations of ZB716 or positive control inhibitors. All incubations were performed in triplicate. The mean of the enzyme activity (% of non-inhibited control) for each concentration was plotted against the log inhibitor concentration, and fitted to an IC50 curve.

[2] = target: CYP2D6 (Homo sapiens, UniProt P10635); assay: CYP phenotyping, recombinant CYP2D6
Method: (§9) Bactosomes prepared from E. coli that heterologously expressed individual human CYP isoforms together with human CYP reductase were obtained from CYPEX LTD (Scotland, UK), and stored at −80 °C prior to use. […] Timepoints were taken at 0, 5, 10, 15, 20, and 30 min. Substrate disappearance was used to calculate intrinsic clearance (Clint) and half-life (t1/2). All incubations were performed in triplicate. […] The chemical inhibitors for CYP1A2, 2A6, 2B6, 2C8, 2C9, 2C19, 2D6, and 3A4 were furafylline, tranylcypromine, ticlopidine, montelukast, sulfaphenazole, N-3-benzylnirvanol, quinidine, and ketoconazole, respectively. Timepoints were collected at 0, 15, 30, 45, and 60 min, and the remaining percentage of the parent drug at each timepoint was calculated (the calculation details are available in the Supplementary Materials). All incubations were performed in triplicate.
The slope, k, was determined by linear regression of the natural logarithm of percent parent disappearance vs. incubation time curve. Peak areas for test article and internal standard were determined from extracted ion chromatograms. The peak area ratio was used to calculated for the results.
The half-life value (t1/2 rCYPi) was determined from the slope value:
Conversion of the t1/2 rCYPi (in min) into the intrinsic clearance (Clint rCYPi in μL/min/pmol) was done using the following equation:
1.3.2 For inhibition ratio (%) (Liver microsomes with and without inhibitors) The slope value, k, was determined by linear regression of the natural logarithm of the remaining percentage of the parent drug vs. incubation time curve. If the turnover was not significant (T-test with p<0.05 was not obtained) and the percentage remaining at last time point was ≥ 80%, the k value was

[3] = target: T1, CYP2C19; assay: CYP phenotyping, recombinant CYP2C19
Method: as §9
(§10) 1.3.1 Intrinsic Clearance (Heterologously Expressed Human Cytochrome P450) All calculations were carried out using Microsoft Excel. The slope, k, was determined by linear regression of the natural logarithm of percent parent disappearance vs. incubation time curve. Peak areas for test article and internal standard were determined from extracted ion chromatograms. The peak area ratio was used to calculated for the results.
(§11) The half-life value (t1/2 rCYPi) was determined from the slope value: […]

[4] = target: CYP2C9 (Homo sapiens, UniProt P11712); assay: CYP phenotyping, recombinant CYP2C9
Method: as §9, §10, §11

[5] = tested on: Caco-2 cell monolayers; assay: Bidirectional permeability across Caco-2 cell monolayers; type: in vitro ADME; details: Caco-2, according to the results at 15 μM
Method: (§3) The bidirectional permeability and absorption mechanism of ZB716 was evaluated across Caco-2 cell monolayers.
(§4) The apical-to-basolateral (A–B) and basolateral-to-apical (B–A) transport of ZB716 in HBSS (25 mM HEPES) with 1% BSA was measured across Caco-2 cell monolayers. […] All incubations were performed in triplicate, and the integrity of the cell monolayers was confirmed using the marker Lucifer yellow.
(§5) The slope, k, was determined by linear
(§6) using the following equation: […]
(§7) 1.4 Intestinal Mucosal Permeation of ZB716
(§8) Papp= VAArea х timeх ሾdrugሿreceiverሾdrugሿinitial,donor

[6] = as above; type: in vitro ADME; details: human; for recovery at 120 min, 1 μM: Caco-2, Caco-2, 1 μM; for recovery at 120 min, 5 μM: Caco-2, Caco-2, 5 μM; for recovery at 120 min, 15 μM: Caco-2, Caco-2, 15 μM
Method: as §3, §4, §5, §6, §7, §8

[7] = target: T2, CYP2C8 (Homo sapiens, UniProt P10632); assay: CYP phenotyping, recombinant CYP2C8
T2 sequence (P10632 1-490): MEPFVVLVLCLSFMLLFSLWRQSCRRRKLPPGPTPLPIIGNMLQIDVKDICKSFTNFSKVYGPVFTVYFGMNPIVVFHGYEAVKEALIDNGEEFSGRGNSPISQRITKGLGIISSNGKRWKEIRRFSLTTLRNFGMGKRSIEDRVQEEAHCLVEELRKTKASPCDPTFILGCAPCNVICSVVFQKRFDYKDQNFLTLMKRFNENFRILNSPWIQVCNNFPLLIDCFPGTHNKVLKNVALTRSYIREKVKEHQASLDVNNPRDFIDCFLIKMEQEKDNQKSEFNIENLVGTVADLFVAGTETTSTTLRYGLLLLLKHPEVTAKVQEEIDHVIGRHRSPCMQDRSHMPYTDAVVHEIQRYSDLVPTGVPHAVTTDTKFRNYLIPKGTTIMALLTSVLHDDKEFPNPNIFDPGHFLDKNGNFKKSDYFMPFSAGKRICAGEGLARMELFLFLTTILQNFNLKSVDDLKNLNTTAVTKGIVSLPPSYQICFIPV
Method: as §9, §10, §11

[8] = target: T3, CYP2B6 (Homo sapiens, UniProt P20813); assay: CYP inhibition in human liver microsomes, CYP2B6; type: in vitro ADME; details: HLM, marker substrate Bupropion
T3 sequence (P20813 1-491): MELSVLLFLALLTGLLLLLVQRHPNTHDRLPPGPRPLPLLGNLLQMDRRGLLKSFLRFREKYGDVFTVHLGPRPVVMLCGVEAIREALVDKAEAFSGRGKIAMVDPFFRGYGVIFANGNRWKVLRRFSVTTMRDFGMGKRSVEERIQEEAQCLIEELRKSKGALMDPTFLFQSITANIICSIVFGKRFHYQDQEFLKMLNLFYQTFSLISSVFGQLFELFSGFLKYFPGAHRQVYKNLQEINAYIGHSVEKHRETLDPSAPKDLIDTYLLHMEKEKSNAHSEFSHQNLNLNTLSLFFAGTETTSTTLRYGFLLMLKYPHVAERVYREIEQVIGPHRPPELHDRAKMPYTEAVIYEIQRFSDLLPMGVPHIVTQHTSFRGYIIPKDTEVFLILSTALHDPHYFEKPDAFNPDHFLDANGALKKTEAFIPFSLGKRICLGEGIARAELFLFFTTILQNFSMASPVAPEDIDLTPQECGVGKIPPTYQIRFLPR
Method: as §1, §2

Sequence of CYP2D6 (P10635 whole entry): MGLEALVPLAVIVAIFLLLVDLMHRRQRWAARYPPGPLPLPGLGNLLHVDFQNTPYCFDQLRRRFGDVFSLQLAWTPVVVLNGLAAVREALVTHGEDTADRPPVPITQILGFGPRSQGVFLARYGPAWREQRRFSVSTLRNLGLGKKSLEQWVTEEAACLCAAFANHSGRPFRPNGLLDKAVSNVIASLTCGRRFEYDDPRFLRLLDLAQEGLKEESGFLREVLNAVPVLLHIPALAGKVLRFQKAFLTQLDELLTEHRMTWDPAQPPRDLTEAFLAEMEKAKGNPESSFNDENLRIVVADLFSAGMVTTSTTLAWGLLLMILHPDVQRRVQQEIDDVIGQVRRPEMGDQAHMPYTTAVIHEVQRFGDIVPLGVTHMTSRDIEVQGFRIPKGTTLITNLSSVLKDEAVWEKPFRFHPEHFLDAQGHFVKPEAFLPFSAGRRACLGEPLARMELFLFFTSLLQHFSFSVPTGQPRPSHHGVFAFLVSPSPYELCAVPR
T1 sequence (P33261 whole entry): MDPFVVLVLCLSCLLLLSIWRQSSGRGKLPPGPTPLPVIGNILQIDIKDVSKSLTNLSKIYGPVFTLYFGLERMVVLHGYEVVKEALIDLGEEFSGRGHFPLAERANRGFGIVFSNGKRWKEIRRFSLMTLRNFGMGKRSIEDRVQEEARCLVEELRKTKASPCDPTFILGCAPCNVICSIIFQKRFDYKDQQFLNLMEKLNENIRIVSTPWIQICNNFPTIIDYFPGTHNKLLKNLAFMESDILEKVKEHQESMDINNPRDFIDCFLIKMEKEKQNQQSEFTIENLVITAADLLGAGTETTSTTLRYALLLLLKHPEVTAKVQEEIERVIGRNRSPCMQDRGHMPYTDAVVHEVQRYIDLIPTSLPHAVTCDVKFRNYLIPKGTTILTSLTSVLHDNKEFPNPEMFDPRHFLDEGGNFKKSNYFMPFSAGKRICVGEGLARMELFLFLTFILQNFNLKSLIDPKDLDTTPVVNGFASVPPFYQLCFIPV
Sequence of CYP2C9 (P11712 whole entry): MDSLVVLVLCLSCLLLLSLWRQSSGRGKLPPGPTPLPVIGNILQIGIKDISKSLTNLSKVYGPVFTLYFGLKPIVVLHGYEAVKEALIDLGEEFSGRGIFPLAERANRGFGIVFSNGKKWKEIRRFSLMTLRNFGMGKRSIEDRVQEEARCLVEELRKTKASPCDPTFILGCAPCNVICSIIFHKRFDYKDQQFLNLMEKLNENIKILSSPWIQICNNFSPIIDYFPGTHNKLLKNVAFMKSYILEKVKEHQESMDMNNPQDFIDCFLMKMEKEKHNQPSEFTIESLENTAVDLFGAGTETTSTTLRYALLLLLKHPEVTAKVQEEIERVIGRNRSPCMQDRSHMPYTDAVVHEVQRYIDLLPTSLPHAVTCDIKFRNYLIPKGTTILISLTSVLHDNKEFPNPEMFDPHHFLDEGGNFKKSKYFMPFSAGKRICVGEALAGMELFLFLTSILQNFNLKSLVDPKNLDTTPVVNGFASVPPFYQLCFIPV

Q: What does the source list for `C[C@]12CC[C@@H]3c4ccc(B(O)O)cc4C[C@@H](CCCCCCCCC[S+]([O-])CCCC(F)(F)C(F)(F)F)[C@H]3[C@@H]1CC[C@@H]2O` (some centres unmarked) [ZB716, fulvestrant-3-boronic acid]?
A: IC50 [1]: 2200 nM; half-life at 2 µM ([2]; human): 18.3 ± 3.3 min; Clint ([2]; recombinant CYP2D6, 2 µM ZB716): 0.773 µL/min/pmol CYP and 0.773 ± 0.142 µL/min/pmol CYP; half-life at 2 µM ([3]; human): 21.6 ± 2 min; Clint ([3]; recombinant CYP2C19, 2 µM ZB716): 0.646 ± 0.063 µL/min/pmol CYP; half-life at 2 µM ([4]; human): 18.6 ± 0.4 min; Clint ([4]; recombinant CYP2C9, 2 µM ZB716): 0.746 ± 0.015 µL/min/pmol CYP; permeability class [5]: low permeability; recovery at 120 min, 1 μM ([6]; read-out: Recovery A to B): < 66.6%; recovery at 120 min, 1 μM ([6]; read-out: Recovery B to A): 66.5 ± 0.7%; recovery at 120 min, 5 μM ([6]; read-out: Recovery A to B): < 67%; recovery at 120 min, 5 μM ([6]; read-out: Recovery B to A): 73.7 ± 1.5%; recovery at 120 min, 15 μM ([6]; read-out: Recovery A to B): 75.7 ± 2%; recovery at 120 min, 15 μM ([6]; read-out: Recovery B to A): 84.2 ± 4.8%; Papp A→B at 120 min, 1 μM ([6]; Caco-2, 1 μM): < 0.778 ×10⁻⁶ cm/s; Papp B→A at 120 min, 1 μM ([6]; Caco-2, 1 μM): 0.747 ± 0.0316 ×10⁻⁶ cm/s; efflux ratio at 120 min, 1 μM ([6]; Caco-2, 1 μM): > 0.935; Papp A→B at 120 min, 5 μM ([6]; Caco-2, 5 μM): < 0.159 ×10⁻⁶ cm/s; Papp B→A at 120 min, 5 μM ([6]; Caco-2, 5 μM): 0.82 ± 0.127 ×10⁻⁶ cm/s; efflux ratio at 120 min, 5 μM ([6]; Caco-2, 5 μM): > 4.55; Papp A→B at 120 min, 15 μM ([6]; Caco-2, 15 μM): 0.188 ± 0.021 ×10⁻⁶ cm/s; Papp B→A at 120 min, 15 μM ([6]; Caco-2, 15 μM): 0.534 ± 0.028 ×10⁻⁶ cm/s; efflux ratio at 120 min, 15 μM ([6]; Caco-2, 15 μM): 2.87 ± 0.49; half-life at 2 µM ([7]; human): 11.1 ± 1.2 min; Clint ([7]; recombinant CYP2C8, 2 µM ZB716): 1.25 ± 0.14 µL/min/pmol CYP; IC50 [8]: not observed; also recorded: No Inhibition
